This is an account of results in patent US7951408B2, “Methods of feeding animals” (ADM Alliance Nutrition Inc., priority 2001, dated 2011).

For assay [1], the system named is rumen protein digestion. The assay is described as follows: In vitro fermentation of protein meals with metal ions: RUP after 16 h. The conditions noted are these: for Mean RUP: 150 mg/L metal ions, 16 h of fermentation.
The next assay deals with crossbred wether lambs. The assay can be described thus: Performance of lambs receiving zinc or zinc, manganese, iron combinations. Conditions: 16% CP, Low RUP diet plus metal sulfates (about 500 ppm total metal). The class given is in vivo. On the procedure:
Individually fed crossbred wether lambs were fed diets containing 14% CP (as a negative control) or 16% CP with low or high RUP content to examine the feeding of divalent metals singly or in combination. Bypass protein content was increased by feeding higher amounts of heat-treated soybean meal. In the 16%, Low RUP diet, the following metal additions were tested: 500 ppm Zn; 250 ppm Zn:250 ppm Mn; and 170 ppm Zn: 170 ppm Mn: 170 ppm Fe. All metals were added in the sulfate form, and iron was in the form of ferrous sulfate. Feeding the 16% CP: High RUP diet or adding metals to the 16% CP: Low RUP tended to decrease gain and feed efficiency with only small effects on feed intake relative to that obtained with the 16%, low RUP diet (Table 6).
For instance, Table 6A presents the data of Table 6 in a different format. The average body weight is determined by dividing the sum of the initial weight and the 42 day weight of the lamb by 2.

The test system of assay [2] is rumen protein digestion. The assay is described as follows: In vitro digestion in artificial rumen system (Ankom Daisy): rumen protein digestion. As to the method:
Metals were incorporated at 150 or 300 mg/L. […] Previous efforts focused on the digestion of high protein feeds such as oilseed meals.

For a further assay, the system named is rumen starch digestion. The assay can be described thus: In vitro starch digestion and pH in artificial rumen system (Ankom Daisy). On the procedure: In vitro digestions of a complete dairy pellet, and a dairy total mixed ration TMR) were performed using an artificial rumen system (Ankom Daisy system) to evaluate the effects of metal ions on rumen starch digestion.

Another assay concerns lactating dairy cows. Conditions: for Dry matter intake / Intestinal Amino Acid flows, Lysine / Intestinal Amino Acid flows, Methionine / Intestinal Amino Acid flows, Total Essential Amino Acids / Ruminal digestion, Neutral Detergent Fiber / Ruminal digestion, Organic Matter / Ruminal digestion, Starch: additional 250 ppm zinc. As to the method: The concentration of RUP in high and low RUP diets were manipulated by changing the proportions of low RUP feeds (soybean meal, canola) and high RUP feeds (heated soybean meal, corn gluten meal).
Using the data presented in Table 8, the amount of metal ions fed to the cows can also be expressed in grams of metal ions per kilogram of the cow's body weight per day. For instance, Table 8A presents the data of Table 8 in a different format. The average body weight is determined by the fact that an average mature dairy cow weighs about 640 kg. The grams of metal ions fed to the cow per kg of the cow's body weight per day is determined by: multiplying the DMI (kg/day) times the metal ion concentration (grams of metal ions per kg of dry feed), resulting in the amount of metal ions in grams fed to the cow per day; the amount of metal ions in grams fed to the cow per day is divided by the average body weight of the cow, thus resulting in the grams of metal ions fed to the cow per kg of the cow's body weight per day.

The test system of the next assay is Holstein cows. The conditions noted are these: complete feed 1020 ppm of zinc, six weeks. The source says:
The source of RUP was a combination of heated soybean meal, corn gluten meal, and distiller dried grains.

Several values for one entry are separate records, joined by “and”; a condition that tells them apart may be missing. Identical values can stand only once. Like-named read-outs stand apart in the source and are kept apart here. Marks after values point to notes of the source that are not given here.

With `[Cl][Fe]([Cl])[Cl]` [Ferric Iron], the “Mean RUP” value in the assay on rumen protein digestion [1] (Canola) is recorded as 51.6^ab; in the assay with rumen protein digestion [1] (Cottonseed), 58.4^b; with rumen protein digestion [1] (Heated Canola), 81.1^a; with rumen protein digestion [1] (Heated SBM), 81.7^ab; in the assay with rumen protein digestion [1] (SBM), 29.1^a.

On to `O=S(=O)([O-])[O-].[Zn+2]` [Zinc, zinc sulfate], for which, in the assay with crossbred wether lambs, the “ADG (average daily gain)” value was 451^a,b g/day, the “G/F × 100 (ratio of weight gain to feed intake)” value was 27.3^b and the “Total Gain” value is recorded as 18.81^a kg. For the same compound, in the assay on crossbred wether lambs (listed as Zn), the 42 day weight was 43.8^a kg and 43.8 kg; the “DMI (dry matter intake)” value is 1.66^a kg/day and 1.66 kg/day. Moreover, the “Average rumen undegraded protein for all samples” value (“Average rumen undegraded protein” below) with rumen protein digestion [2] is 45 % of protein and 48 % of protein. Further, the “Mean RUP” value in the assay on rumen protein digestion [1] (Canola) is reported as 57.3^b. In the assay with rumen protein digestion [1] (Cottonseed), the “Mean RUP” value was 64.4^c. Further, the “Mean RUP” value in the assay with rumen protein digestion [1] (Heated Canola) is recorded as 85.2^b. Also, the “Mean RUP” value in the assay with rumen protein digestion [1] (Heated SBM) is reported as 85.2^b. The “Mean RUP” value with rumen protein digestion [1] (SBM) was 56.4^c. For the same compound, in the assay with rumen starch digestion, the Ammonia is 30.8 mg/dL and 29.7 mg/dL; the “Ammonia, Main Effects” value was -1.1 mg/dL; the “Digestion Rates, Rumen Undegraded Starch (16 hours), Main Effects” value was “.038** % per hour”; the “Digestion Rates, pH Decline, Main Effects” value is “−.027 % per hour”. Also, in the assay with rumen starch digestion, the “Rumen Undegraded Starch (16 hours)” value was 13.2% and 12.0%; the “Rumen Undegraded Starch (16 hours), Main Effects” value turned out to be 4.0%; the “calculated kinetic rate for starch digestion” value was “decreased”; the “pH at 16 hours, Main Effects” value is recorded as “.05*”. In the assay with rumen starch digestion, the “pH at 48 hours, Main Effects” value is reported as “.05” and the “rumen undegraded starch measured at 16 h” value is “increased”. Further, in the assay with lactating dairy cows (High RUP diet), the Dry matter intake was 22.2 kg/day; the “Intestinal Amino Acid flows, Lysine” value was 200.0 g/day; the “Intestinal Amino Acid flows, Methionine” value worked out at 58.2 g/day; the “Intestinal Amino Acid flows, Total Essential Amino Acids” value worked out at 1601 g/day. In the assay on lactating dairy cows (High RUP diet), the “Ruminal digestion, Neutral Detergent Fiber” value was 24.8 % of intake; the “Ruminal digestion, Organic Matter” value is recorded as 45.5 % of intake; the “Ruminal digestion, Starch” value is reported as 52.8 % of intake. Besides, in the assay on lactating dairy cows (Low RUP diet), the Dry matter intake is 21.8 kg/day; the “Intestinal Amino Acid flows, Lysine” value came to 183.3 g/day; the “Intestinal Amino Acid flows, Methionine” value is 49.0 g/day; the “Intestinal Amino Acid flows, Total Essential Amino Acids” value turned out to be 1331 g/day. Besides, in the assay on lactating dairy cows (Low RUP diet), the “Ruminal digestion, Neutral Detergent Fiber” value is reported as 22.0 % of intake; the “Ruminal digestion, Organic Matter” value is given as 47.3 % of intake; the “Ruminal digestion, Starch” value is on record as 53.6 % of intake. For the same compound, in the assay on lactating dairy cows (both the low and high RUP diets, in words), the “digestion of starch in the rumen” value is given as “reduced”. Also, in the assay on Holstein cows, the Milk was found to be 33.2 kg/day, the “Milk Fat” value worked out at 3.25% and the “Milk Protein” value was found to be 3.20%.

Consider ferrous sulfate [Ferrous Iron], for which the “decreasing rumen protein digestion, effectiveness” value with rumen protein digestion [1] (150 mg/L, in words) is reported as “substantially more effective than the ferric ion”. The “Mean RUP” value in the assay with rumen protein digestion [1] (Canola) was 57.7^b; with rumen protein digestion [1] (Cottonseed) it was 62.1^bc; with rumen protein digestion [1] (Heated Canola) it was 83.5^b; in the assay with rumen protein digestion [1] (Heated SBM) it was 83.9^b; with rumen protein digestion [1] (SBM) it was 42.9^b.

In the assay on rumen protein digestion [2] (Alfalfa Haylage, 150 mg/L), manganous sulfate [Manganese] registered a rumen undegraded protein of 26.1. For the same compound, the rumen undegraded protein in the assay with rumen protein digestion [2] (Alfalfa Haylage, 300 mg/L) is 24.8. For the same compound, the rumen undegraded protein with rumen protein digestion [2] (Dairy Concentrate Feeds, 150 mg/L) amounted to 50.9. For the same compound, the rumen undegraded protein in the assay on rumen protein digestion [2] (Dairy Concentrate Feeds, 300 mg/L) is recorded as 52.3. In addition, in the assay on rumen protein digestion [2] (metal inclusion 150 mg/L), the “Average rumen undegraded protein” value is on record as 43.2 % of protein. Besides, in the assay with rumen protein digestion [2] (metal inclusion 300 mg/L), the “Average rumen undegraded protein” value is given as 42.5 % of protein. Also, in the assay on rumen starch digestion (150 mg/L metal), the Ammonia was determined as 32.1 mg/dL; the “Digestion Rates, Rumen Undegraded Starch (16 hours)” value is listed as “−.137 % per hour”; the “Digestion Rates, pH Decline” value is recorded as “.135 % per hour”; the “Rumen Undegraded Starch (16 hours)” value is 5.1%. For the same compound, in the assay on rumen starch digestion (150 mg/L metal), the “pH at 16 hours” value is given as “−.28” and the “pH at 48 hours” value is listed as “−.30”. Moreover, in the assay on rumen starch digestion (300 mg/L metal), the Ammonia was 34.2 mg/dL; the “Digestion Rates, Rumen Undegraded Starch (16 hours)” value is listed as “−.132 % per hour”; the “Digestion Rates, pH Decline” value is listed as “.247 % per hour”; the “Rumen Undegraded Starch (16 hours)” value is on record as 8.0%. In the assay with rumen starch digestion (300 mg/L metal), the “pH at 16 hours” value is “−.34” and the “pH at 48 hours” value was “−.27”. For the same compound, in the assay on rumen starch digestion (main effect of metal), the “Ammonia, Main Effects” value is given as 1.8 mg/dL; the “Digestion Rates, Rumen Undegraded Starch (16 hours), Main Effects” value amounted to 0.0 % per hour; the “Digestion Rates, pH Decline, Main Effects” value is reported as “−.043 % per hour”; the “Rumen Undegraded Starch (16 hours), Main Effects” value was −2.0%. Further, in the assay on rumen starch digestion (main effect of metal), the “pH at 16 hours, Main Effects” value is on record as “.05*” and the “pH at 48 hours, Main Effects” value was “.03”.
